The mortality is the percentage killed.

These results are taken from US5225607A, “Insecticidal ethers” (Imperial Chemical Industries PLC, priority 1985, dated 1993).

Some results are limits rather than exact numbers.

Common to all, as to format: in vivo
The test system of one assay is Tetranychus urticae. Kind of assay: Insecticidal/acaricidal test, Tetranychus urticae (spider mites - adult), contact. To be noted: 72 h, 500 ppm, French bean leaf, 3 days, read-out: grading of mortality, TU. The protocol:
(§1) The activity of the Product was determined using a variety of insect and acarine pests. The Product was used in the form of liquid preparations containing 500, 250 or 100 parts per million (ppm) by weight of the Product. The preparations were made by dissolving the Product in acetone and diluting the solutions with water containing 0.01% by weight of a wetting agent sold under the trade name "LISSAPOL" NX until the liquid preparations contained the required concentratio of the Product. "Lissapol" is a Registered Trade Mark.
(§2) The test procedure adopted with regard to each pest was basically the same and comprised supporting a number of the pests on a medium which was usually a host plant or a foodstuff on which the pests feed, and treating either or both the pests and the medium with the preparations. The mortality of the pests was then assessed at periods usually varying from one to three days after the treatment.
(§3) The results of the tests are given in Table IV for each of the Products, at the rate in parts per million given in the second column as a grading of mortality designated as A, B or C wherein A indicates 80-100% mortality or knockdown (70-100% in the case of Spodoptera exigua), B indicates 50-79% mortality or knockdown (50-69% in the case of Spodoptera exigua) and C indicates less than 50% mortality or knockdown.
(§4) In Table IV the pest organism used is designated by a letter code and the pest species, the support medium or food, and the type and duration of test is given in Table III.

The next assay concerns Myzus persicae. Description: Insecticidal test, Myzus persicae (aphids), contact. The note with it: 72 h, 500 ppm, Chinese Cabbage leaf, 3 days, read-out: grading of mortality, MP. How it is done: as §1, §2, §3, §4
Another assay concerns Nilaparvata lugens. Kind of assay: Insecticidal test, Nilaparvata lugens (brown planthopper), contact. The note with it: 72 h, 500 ppm, Cabbage leaf, 3 days, read-out: grading of mortality, NL. How it is done:
as §1, §2, §3, §4

For assay [1], the system named is Musca domestica. Description: Knockdown test, Musca domestica (houseflies - adults). The note with it: 500 ppm, cotton wool/sugar, 4 hours, read-out: grading of knockdown, MD/KD. How it is done:
as §1, §2
In the case of the species Musca domestica (housefly), additional tests to determine the knockdown effect of the compounds were performed.
as §3, §4

Assay [2] concerns Musca domestica. Kind of assay: Insecticidal test, Musca domestica (houseflies - adults), contact. To be noted: 24 h, 500 ppm, cotton wool/sugar, 1 day, read-out: grading of mortality, MD. How it is done: as §1, §2, §3, §4
Another assay concerns Blattella germanica. Kind of assay: Insecticidal test, Blattella germanica (cockroach nymphs), residual. To be noted: 72 h, 500 ppm, plastic pot, 3 days, read-out: grading of mortality, BG. How it is done: as §1, §2, §3, §4
The test system of another assay is Heliothis virescens. Description: whole plant or invertebrate. To be noted: in Gossypium hirsutum, 72 h, read-out: grading of mortality, HV. The protocol:
as §1, §2, §3, §4

The subject of another assay is Diabrotica balteata. Kind of assay: Insecticidal test, Diabrotica balteata (rootworm larvae), residual. The note with it: 72 h, 500 ppm, filter paper/maize seed, 3 days, read-out: grading of mortality, DB. The protocol: as §1, §2, §3, §4

Regarding `CCOc1ccc(C(COCc2c(F)c(F)c(C)c(F)c2F)C(F)(F)F)cc1` (stereo not shown) [Compound 2, 1,1,1-Trifluoro-2-(4-ethoxyphenyl)-3-(4-methyl-2,3,5,6-tetrafluorobenzyloxy)propane], the mortality at 500 ppm with Tetranychus urticae is less than 50%; in the assay on Myzus persicae it was 50 to 79%; in the assay on Nilaparvata lugens, 80 to 100%; in the assay with Musca domestica [2], 50 to 79%; in the assay on Blattella germanica, 80 to 100%; with Heliothis virescens it was less than 50%. The mortality at 500 ppm with Diabrotica balteata fell in the range of 80 to 100%. Moreover, the pest or weed control at 500 ppm with Musca domestica [1] was less than 50%.

Consider `Fc1ccc(COCC(F)(c2ccc(Cl)cc2)C(F)(F)F)cc1Oc1ccccc1` (stereo not shown) [Compound 81, 1,1,1,2-tetrafluoro-2-(4-chlorophenyl)-3-(3-phenoxy-4-fluorobenzyloxy)propane], for which the mortality at 500 ppm in the assay with Tetranychus urticae is less than 50%; in the assay with Myzus persicae, 80 to 100%; in the assay on Nilaparvata lugens it was 80 to 100%; in the assay with Musca domestica [2], 80 to 100%; in the assay with Blattella germanica, 80 to 100%; in the assay on Diabrotica balteata, 80 to 100%. Besides, the pest or weed control at 500 ppm with Musca domestica [1] fell in the range of 80 to 100%.

On to `OC(COCc1ccc(F)c(Oc2ccccc2)c1)(c1ccc(Cl)cc1)C(F)(F)F` (stereo not shown) [Compound 126, 1,1,1-Trifluoro-2-(4-chlorophenyl)-3-(3-phenoxy-4-fluorobenzyloxy)propan-2-ol], for which the mortality at 500 ppm is 80 to 100% with Tetranychus urticae; less than 50% in the assay with Myzus persicae; less than 50% in the assay with Nilaparvata lugens; less than 50% in the assay on Musca domestica [2]; less than 50% in the assay with Blattella germanica; less than 50% in the assay with Diabrotica balteata. Besides, the pest or weed control at 500 ppm in the assay with Musca domestica [1] lay within 80 to 100%.

For `CCOc1ccc(C(Cl)(COCc2ccc(F)c(Oc3ccc(Br)cc3)c2)C(F)(F)F)cc1` (stereo not shown) [Compound 43, 1,1,1-Trifluoro-2-chloro-2-(4-ethoxyphenyl)-3-(3-(4-bromophenoxy)-4-fluorobenzyloxy)propane], the mortality at 500 ppm in the assay with Tetranychus urticae is 50 to 79%; in the assay on Myzus persicae, 80 to 100%; with Nilaparvata lugens, 80 to 100%; in the assay with Musca domestica [2] it was 80 to 100%; in the assay with Blattella germanica, 50 to 79%; in the assay on Diabrotica balteata, less than 50%. The pest or weed control at 500 ppm in the assay with Musca domestica [1] is 80 to 100%.

Turning to `Fc1ccc(COCC(c2ccc(Cl)cc2)C(F)(F)F)cc1Oc1ccccc1` (stereo not shown) [Compound 15], the mortality at 500 ppm with Tetranychus urticae, in the assay with Myzus persicae, in the assay with Nilaparvata lugens, in the assay with Musca domestica [2], in the assay on Blattella germanica and in the assay with Diabrotica balteata was 80 to 100% each time. Moreover, the pest or weed control at 500 ppm in the assay on Musca domestica [1] was 80 to 100%.

For `CCOc1ccc(C(O)(COCc2ccc(F)c(Oc3ccc(Br)cc3)c2)C(F)(F)F)cc1` (stereo not shown) [Compound 116, 1,1,1-Trifluoro-2-(4-ethoxyphenyl)-3-(3-(4-bromophenoxy)-4-fluorobenzyloxy)propan-2-ol], the mortality at 500 ppm in the assay with Tetranychus urticae is 80 to 100%; in the assay with Myzus persicae, less than 50%; in the assay with Nilaparvata lugens, less than 50%; in the assay with Musca domestica [2], 50 to 79%; with Blattella germanica it was less than 50%; in the assay with Diabrotica balteata, less than 50%. In addition, the pest or weed control at 500 ppm in the assay on Musca domestica [1] is 50 to 79%.
